We go through 34 compounds from US7495027B2, “3-aryl-4-hydroxyfuranone compounds and the human and animal health use thereof” (Wyeth, priority 2003, dated 2009).

The first experiment deals with C. elegans. The experiment in a line: Efficacy against nematodes (C. elegans motility rating). Conditions: dose 200 μM, observations at 4 h and 24 h postimmersion. Set-up: key: 0: no effect; 7: reduced movement in 24 h; 8: dead in 24 h; 9: dead in 4 h. The procedure: Evaluation of the Efficacy of a 3-Aryl-4-Hydroxyfuranone Against Nematodes
In this evaluation, cultures of C. elegans are maintained on E. coli lawns on Nematode Growth Agar at 20° C. New cultures are established twice a week. Nematodes for testing are rinsed from plates using M9 Buffer. […] One μL of this solution is added to each well of a 96 well plate. A mixture of C. elegans in M9 Buffer (100 μL) is added to each well, such that approximately 50 worms of mixed stages (L1, L2, L3, L4 and adults) are present in each well at a final concentration of 100 ppm, 150 ppm or […] of test compound. Concentration of test compound may be varied by gradient dilution of the stock DMSO solution. Observations are made under a dissecting microscope at 4 h and 24 h postimmersion. A rating is based on the motility of the larvae and adults, using the rating system shown below.
As for `Cc1cccc(C2=C(O)C(=Cc3cc(C(F)(F)F)ccc3Cl)OC2=O)c1C`, the Rating came to 0.

With `Cc1ccc(C)c(C2=C(O)/C(=C/c3cc(C(F)(F)F)ccc3Cl)OC2=O)c1`, the Rating was 0.

`CC(C)c1cccc(C2=C(O)/C(=C/c3cc(C(F)(F)F)ccc3Cl)OC2=O)c1`: the Rating stood at 0.

Consider `Cc1ccc(C2=C(O)C(=Cc3cccc(C(F)(F)F)c3Cl)OC2=O)cc1C`, for which the Rating was found to be 9. In the case of `Cc1ccc(C2=C(O)/C(=C/c3cc(C(F)(F)F)ccc3Cl)OC2=O)cc1C`, the Rating was determined as 0. As to `Cc1cc(C)cc(C2=C(O)/C(=C/c3cc(C(F)(F)F)ccc3Cl)OC2=O)c1`, the Rating came to 0.

Compound `CCOc1ccc(-c2ccc(C3=C(O)/C(=C/c4cc(C(F)(F)F)ccc4F)OC3=O)cc2)cc1` returned a Rating of 9.

Consider `CCCCc1ccc(-c2ccc(C3=C(O)C(=Cc4cccc(C(F)(F)F)c4Cl)OC3=O)cc2)cc1`, for which the Rating is 9.

In the case of `CCCCc1ccc(-c2ccc(C3=C(O)/C(=C/c4cc(C(F)(F)F)ccc4F)OC3=O)cc2)cc1`, the Rating is 0. The compound `CCCCc1ccc(-c2ccc(C3=C(O)C(=Cc4cc(F)cc(C(F)(F)F)c4)OC3=O)cc2)cc1` registered a Rating of 9. Same read-out and setting: the value for `CCCc1ccc(-c2ccc(C3=C(O)/C(=C/c4cccc(C(F)(F)F)c4Cl)OC3=O)cc2)cc1` was 9; that for `CCCc1ccc(-c2ccc(C3=C(O)/C(=C/c4cc(C(F)(F)F)ccc4Cl)OC3=O)cc2)cc1` was 0. `CCCc1ccc(-c2ccc(C3=C(O)/C(=C/c4cc(C(F)(F)F)ccc4F)OC3=O)cc2)cc1` displayed a Rating of 9.

Take `CC(C)(C)c1ccc(-c2ccc(C3=C(O)/C(=C/c4cccc(C(F)(F)F)c4)OC3=O)cc2)cc1`: the Rating amounted to 0. On the same count and under the same terms, the value for `CCc1ccc(C2=C(O)/C(=C/c3cc(C(F)(F)F)ccc3Cl)OC2=O)cc1` was 9; that for `CC(C)c1ccc(C2=C(O)/C(=C/c3cccc(C(F)(F)F)c3Cl)OC2=O)cc1` was 9.

The experiment is the same for the next values; noted with them: dose 100 ppm, observations at 4 h and 24 h postimmersion.
Compound `O=C1OC(=Cc2ccc(Cl)c(Cl)c2)C(O)=C1c1ccc(Cl)s1` had a Rating of 9. With `O=C1O/C(=C\c2ccc(F)c(F)c2)C(O)=C1c1ccc(Cl)s1`, the Rating is recorded as 9.

In turn, `O=C1O/C(=C\c2ccc(C(F)(F)F)cc2)C(O)=C1c1ccc(Cl)s1` showed a Rating of 9. `N#Cc1ccc(/C=C2\OC(=O)C(c3ccc(Cl)s3)=C2O)cc1`: the Rating amounted to 9. In turn, `O=C1O/C(=C\c2ccc(Cl)cc2)C(O)=C1c1ccc(Cl)s1` displayed a Rating of 9. With `O=C1O/C(=C\c2ccc(F)c(C(F)(F)F)c2)C(O)=C1c1ccc(Cl)s1`, the Rating was determined as 9. Regarding `O=C1O/C(=C\c2ccc(F)cc2)C(O)=C1c1ccc(Cl)s1`, the Rating turned out to be 9.

As to `O=C1O/C(=C\c2ccc(OC(F)(F)F)cc2)C(O)=C1c1ccc(Cl)s1`, the Rating was determined as 9. Consider `O=C1O/C(=C\c2ccc(OC(F)F)cc2)C(O)=C1c1ccc(Cl)s1`, for which the Rating turned out to be 9. In turn, `O=C1O/C(=C\c2ccc(OCC3CC3)cc2)C(O)=C1c1ccc(Cl)s1` had a Rating of 9.

On to `O=C1OC(=Cc2ccc(Cl)s2)C(O)=C1c1ccc(Cl)s1`, for which the Rating turned out to be 9.

The experiment is the same for the next values; noted with them: dose 150 ppm, observations at 4 h and 24 h postimmersion.
In the case of `O=C1O/C(=C\c2ccc(-c3ccccc3CO)cc2)C(O)=C1c1ccccc1CO`, the Rating worked out at 0.

For `O=C1OC(=Cc2ccc(-c3cccc(CO)c3)cc2)C(O)=C1c1cccc(CO)c1`, the Rating turned out to be 0. For the compound `COc1ccc(/C=C2\OC(=O)C(c3cccc(Cl)c3)=C2O)c2ccccc12`, the Rating worked out at 9. Still for that read-out and setting: the value for `CC(=O)Nc1cccc(C2=C(O)C(=Cc3ccc(-c4cccc(NC(C)=O)c4)cc3)OC2=O)c1` was 0; that for `CCOC(=O)N1CCN(c2ccc(C=C3OC(=O)C(c4cc(Cl)cc(Cl)c4)=C3O)cc2F)CC1` was 0; that for `O=C1O/C(=C\c2ccc(-c3cc(Cl)cc(Cl)c3)cc2)C(O)=C1c1cc(Cl)cc(Cl)c1` was 7.

Consider `CC(C)(C)c1ccc(-c2ccc(C3=C(O)/C(=C/c4ccc(-c5ccccc5)cc4)OC3=O)cc2)cc1`, for which the Rating was found to be 0.
